Test results: ChEMBL document CHEMBL2169784, “Discovery and development of spleen tyrosine kinase (SYK) inhibitors” (J Med Chem, 2012)

Legend:
[1] = Half life in rat at 10 mg/kg, po administered as single dose; type: ADME, organism-based; parameters: dose 10 mg/kg, route oral; details: in vivo
[2] = Cmax in rat at 10 mg/kg, po after 2 hrs administered as single dose; type: ADME, organism-based; parameters: dose 10 mg/kg, route oral; details: in vivo

COc1ccc(-c2cc3nccn3c(Nc3ncccc3C(N)=O)n2)cc1OC
half-life [1]: 1.78 h | Cmax [2]: 167 ng/mL
